{"source": "patent US9115127B2", "about": "(AMGEN INC., priority 2010, dated 2015)", "data": [{"biological_target": "T1, wild-type human ALK (cytoplasmic domain, amino acids 1058-1620, N-terminal GST fusion) (Homo sapiens, UniProt Q9UM73)", "T1 construct": "The cytoplasmic domain (amino acids 1058-1620) of wild-type human ALK; GST (N); made in house; host or cells: SF9 insect cells", "T1 sequence (Q9UM73 1058-1620)": "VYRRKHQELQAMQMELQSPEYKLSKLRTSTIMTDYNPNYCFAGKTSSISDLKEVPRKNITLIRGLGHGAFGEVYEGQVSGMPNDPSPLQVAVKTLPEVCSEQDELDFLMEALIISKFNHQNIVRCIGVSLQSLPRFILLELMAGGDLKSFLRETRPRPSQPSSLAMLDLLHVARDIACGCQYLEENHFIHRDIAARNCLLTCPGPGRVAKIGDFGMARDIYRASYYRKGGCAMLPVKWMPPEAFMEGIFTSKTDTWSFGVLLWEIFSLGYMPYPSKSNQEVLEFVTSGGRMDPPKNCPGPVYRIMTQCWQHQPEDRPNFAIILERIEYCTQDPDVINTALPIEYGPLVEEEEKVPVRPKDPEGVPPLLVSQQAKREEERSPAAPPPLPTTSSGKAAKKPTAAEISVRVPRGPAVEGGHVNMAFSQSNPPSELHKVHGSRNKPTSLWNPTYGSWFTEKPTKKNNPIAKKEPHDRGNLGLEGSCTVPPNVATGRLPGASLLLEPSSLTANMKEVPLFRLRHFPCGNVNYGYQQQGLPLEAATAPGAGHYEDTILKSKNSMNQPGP", "assay": "ALK Inhibition in Enzyme Assay (Lance TR-FRET kinase assay)", "format": "biochemical", "method_in_brief": "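TR-FRET read-out (Eu-W1024 PT66 anti-phosphotyrosine plus streptavidin-allophycocyanin, 320 nm excitation) quantified biotinylated peptide phosphorylation by the purified kinase. Reaction ran 90 minutes at room temperature before quenching with 20 mM EDTA in Tris pH 7.5 buffer with NaCl, BSA and Tween-20.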", "units": {"IC50": "nM"}, "values": [{"smiles": "CC(=O)N[C@H]1CC[C@H](n2/c(=N/C(=O)c3ccc(F)cc3)[nH]c3ccc(CN4CCC(C(C)(C)O)CC4)cc32)CC1", "note": "[Example 229, (E)-N-(1-(trans-4-Acetamidocyclohexyl)-6-((4-(2-hydroxypropan-2-yl)piperidin-1-yl)methyl)-1H-benzo[d]imidazol-2(3H)-ylidene)-4-fluorobenzamide]", "IC50": "50 to 100"}, {"smiles": "CC(C)NC(=O)[C@H]1CC[C@@H](n2/c(=N/C(=O)c3ccc(F)cc3)[nH]c3ccc(CN4CCn5c(nnc5C(C)(C)O)C4)cc32)CC1", "note": "[Example 230, (E)-4-Fluoro-N-(6-((3-(2-hydroxypropan-2-yl)-5,6-dihydro-[1,2,4]-triazolo[4,3-a]pyrazin-7(8H)-yl)methyl)-1-(cis-4-(isopropylcarbamoyl)cyclohexyl)-1H-benzo[d]imidazol-2(3H)-ylidene)benzamide]", "IC50": "< 50"}, {"smiles": "CC(C)(O)C1CCN(Cc2ccc3[nH]/c(=N\\C(=O)c4cccc(F)c4)n([C@H]4CC[C@@H](C(N)=O)CC4)c3c2)CC1", "note": "[Example 231]", "IC50": "< 50"}, {"smiles": "C=CCNS(=O)(=O)c1cccc(C(=O)/N=c2\\[nH]c3ccc(CN4CCC(C(C)(C)O)CC4)cc3n2[C@H]2CC[C@@H](C(N)=O)CC2)c1", "note": "[Example 232, (E)-3-(N-Allylsulfamoyl)-N-(1-(cis-4-carbamoylcyclohexyl)-6-((4-(2-hydroxypropan-2-yl)piperidin-1-yl)methyl)-1H-benzo[d]imidazol-2(3H)-ylidene)benzamide]", "IC50": "< 50"}, {"smiles": "CC(C)(O)C1CCN(Cc2ccc3[nH]/c(=N\\C(=O)c4ccc(F)cc4)n([C@H]4CC[C@H](C(N)=O)CC4)c3c2)CC1", "note": "[Example 233, (E)-N-(1-(trans-4-Carbamoylcyclohexyl)-6-((4-(2-hydroxypropan-2-yl)piperidin-1-yl)methyl)-1H-benzo[d]imidazol-2(3H)-ylidene)-4-fluorobenzamide]", "IC50": "50 to 100"}, {"smiles": "CC(C)(O)C1CCN(Cc2ccc3[nH]/c(=N\\C(=O)c4cccc(F)c4)n([C@H]4CC[C@H](C(N)=O)CC4)c3c2)CC1", "note": "[Example 234, (E)-N-(1-(trans-4-Carbamoylcyclohexyl)-6-((4-(2-hydroxypropan-2-yl)piperidin-1-yl)methyl)-1H-benzo[d]imidazol-2(3H)-ylidene)-3-fluorobenzamide]", "IC50": "100 to 1000"}, {"smiles": "C=CCNS(=O)(=O)c1cccc(C(=O)/N=c2\\[nH]c3ccc(CN4CCC(C(C)(C)O)CC4)cc3n2[C@H]2CC[C@H](C(N)=O)CC2)c1", "note": "[Example 235, (E)-3-(N-Allylsulfamoyl)-N-(1-(trans-4-carbamoylcyclohexyl)-6-((4-(2-hydroxypropan-2-yl)piperidin-1-yl)methyl)-1H-benzo[d]imidazol-2(3H)-ylidene)benzamide]", "IC50": "< 50"}, {"smiles": "CC(C)NC(=O)[C@H]1CC[C@@H](n2/c(=N/C(=O)c3ccc(F)cc3)[nH]c3cnc(S(C)(=O)=O)cc32)CC1", "note": "[Example 236, (E)-4-Fluoro-N-(1-(cis-4-(isopropylcarbamoyl)cyclohexyl)-6-(methylsulfonyl)-1H-imidazo[4,5-c]pyridin-2(3H)-ylidene)benzamide]", "IC50": "< 50"}, {"smiles": "COC(=O)Nc1nc2ccc(CN3CCCCC3)cc2n1[C@H]1CC[C@@H](C(=O)NC(C)C)CC1", "note": "[Example 237, Methyl 1-(cis-4-(isopropylcarbamoyl)cyclohexyl)-6-(piperidin-1-ylmethyl)-1H-benzo[d]imidazol-2-ylcarbamate]", "IC50": "100 to 1000"}, {"smiles": "CC(C)NC(=O)[C@H]1CC[C@@H](n2/c(=N/C(=O)c3ccc(F)cc3)[nH]c3ccc(S(C)(=O)=O)cc32)CC1", "note": "[Example 238, (E)-4-Fluoro-N-(1-(cis-4-(isopropylcarbamoyl)cyclohexyl)-6-(methylsulfonyl)-1H-benzo[d]imidazol-2(3H)-ylidene)benzamide]", "IC50": "< 50"}, {"smiles": "CC(C)NC(=O)[C@H]1CC[C@@H](n2/c(=N/C(=O)c3ccc(F)cc3)[nH]c3ccc(N4CCS(=O)(=O)CC4)cc32)CC1", "note": "[Example 239, (E)-4-Fluoro-N-(1-(cis-4-(isopropylcarbamoyl)cyclohexyl)-6-(thiomorpholine 1,1-dioxide)-1H-benzo[d]imidazol-2(3H)-ylidene)benzamide]", "IC50": "< 50"}]}]}
